The target of this test is T1, IRAK4 (Homo sapiens, UniProt Q9NWZ3).
T1 construct: endogenous in cells; host or cells: Karpas299
T1 sequence (Q9NWZ3 1-460): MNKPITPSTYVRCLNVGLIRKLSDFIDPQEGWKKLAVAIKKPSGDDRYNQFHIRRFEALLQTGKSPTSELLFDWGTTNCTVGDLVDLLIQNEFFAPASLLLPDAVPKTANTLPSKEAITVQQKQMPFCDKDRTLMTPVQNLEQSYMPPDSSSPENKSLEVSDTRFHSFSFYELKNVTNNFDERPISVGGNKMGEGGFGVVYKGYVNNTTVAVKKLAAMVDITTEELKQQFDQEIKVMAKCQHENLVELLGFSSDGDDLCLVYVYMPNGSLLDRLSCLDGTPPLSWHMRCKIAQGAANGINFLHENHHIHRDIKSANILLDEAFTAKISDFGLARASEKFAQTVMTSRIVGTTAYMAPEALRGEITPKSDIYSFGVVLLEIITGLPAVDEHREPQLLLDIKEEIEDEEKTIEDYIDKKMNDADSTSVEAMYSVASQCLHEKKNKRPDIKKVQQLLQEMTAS
As to the kind of experiment: IRAK4 Degradation Assay (Karpas299, HTRF/TR-FRET). The format is cell-based. As for the experimental part: IRAK4 degradation was measured using a TR-FRET-based method (Degorce, François, et al. Current chemical genomics. 2009, 3: 22). Karpas299 maintained in RPMI 1640 medium (Thermo Scientific) supplemented with 20% fetal bovine serum (FBS, Thermo Scientific), 100 units/mL penicillin and 0.1 mg/mL streptomycin (Thermo Scientific) were seeded into 96-well plates at the density of 0.2 million cells per well and then treated with a series dilution of compounds. After 24 hours or 5 hours treatment, cells were pelleted via centrifugation and 40 μL lysis buffer (Cisbio) was added to each well after removal of the supernatant. Plates were then incubated at room temperature with shaking for 30 minutes. A total of 16 μL of cell lysates from each well of a 96-well plate was transferred to a 384-well white assay plate. IRAK4 level was quantitated using the HTRF kit as described by the manufacturer manual (Cisbio). FRET signals were measured using a PHERAstar FSX reader (BMG Labtech).
After treatment, add HTRF lysis buffer to each well; seal the plate and incubate 1 hour at room temperature on a plate shaker; Once the cells are lysed, 16 μL of cell lysate are transferred to a PE 384-well HTRF detection plate; 4 μL of pre-mixed HTRF antibodies are added to each well; Cover the plate with a plate sealer, spin 1000 rpm for 1 min, Incubate overnight at room temperature; Read on BMG PheraStar with HTRF protocol (337 nm-665 nm-620 nm).
The inhibition (degradation) percentage of the compound was calculated by the following equation: […]
The IC50 (DC50) value of a compound can be obtained by fitting the following equation
Wherein, X and Y are known values, and IC50, Hillslope, Top and Bottom are the parameters obtained by fitting with software. Y is the inhibition percentage (calculated from the equation), X is the concentration of the compound; IC50 is the concentration of the compound when the […] is reached. The smaller the IC50 value is, the stronger the inhibitory ability of the compound is. Vice versa, the higher the IC50 value is, the weaker the ability the inhibitory ability of the compound is; Hillslope represents the slope of the fitted curve, generally around 1 *; Bottom represents the minimum value of the curve obtained by data fitting, which is generally 0%±20%; Top represents the maximum value of the curve obtained by data fitting, which is generally 100%±20%. The experimental data were fitted by calculating and analyzing with Dotmatics data analysis software.
A general note: In TR-FRET formats the signal depends on donor and acceptor labels being close together.

Setting [1] is: Karpas-299 cells, 5 h treatment, maximum percentage of degradation, read-out: IRAK4 in Karpas-299 (5 h) Dmax (%).
[2] abbreviates: Karpas-299 cells, 5 h treatment, read-out: IRAK4 in Karpas-299 (5 h) DC50.
Where [3] appears, read: Karpas-299 cells, 24 h treatment, maximum percentage of degradation, read-out: IRAK4 in Karpas-299 (24 h) Dmax (%).
Where [4] appears, read: Karpas-299 cells, 24 h treatment, read-out: IRAK4 in Karpas-299 (24 h) DC50.

Results on 12 compounds are retold here after patent US20250195513A1, “DEGRADATION OF IRAK4 BY CONJUGATION OF IRAK4 INHIBITORS WITH E3 LIGASE LIGAND AND METHODS OF USE” (BeiGene, Ltd., priority 2022, published 2025).

Each structure is given as a SMILES string. Where two headings read alike, the source gives them in different places.

Regarding `O=C1CC[C@H](c2c(F)cc(N3CC(C(=O)N4CCN([C@H]5CC[C@H](n6cc(NC(=O)c7coc(-c8ccnc(NCC(F)(F)F)c8)n7)c(C(F)F)n6)CC5)CC4)C3)cc2F)C(=O)N1` [Example 16, N-(3-(difluoromethyl)-1-((1r,4r)-4-(4-(1-(4-((R)-2,6-dioxopiperidin-3-yl)-3,5-difluorophenyl)azetidine-3-carbonyl)piperazin-1-yl)cyclohexyl)-1H-pyrazol-4-yl)-2-(2-((2,2,2-trifluoroethyl)amino)pyridin-4-yl)oxazole-4-carboxamide], the DC50 runs as follows: (Degradation (Karpas-299), comparison table, Linker Type B, read-out: Compound (Linker Type B) DC50) 0.67 nM; under setting [2], 5.7 nM; under setting [4], 0.67 nM. Moreover, the Dmax is 98% (Degradation (Karpas-299), comparison table, Linker Type B, read-out: Compound (Linker Type B) Dmax (%)); 96% under setting [1]; 98% under setting [3].

For `O=C1CC[C@H](c2c(F)cc(N3CC(C(=O)N4CCN([C@H]5CC[C@H](n6cc7cc(NC(=O)c8cccc(C(F)(F)F)n8)c(OC8COC8)nc7n6)CC5)CC4)C3)cc2F)C(=O)N1` [Example 98, N-(2-((1r,4r)-4-(4-(1-(4-((R)-2,6-dioxopiperidin-3-yl)-3,5-difluorophenyl)azetidine-3-carbonyl)piperazin-1-yl)cyclohexyl)-6-(oxetan-3-yloxy)-2H-pyrazolo[3,4-b]pyridin-5-yl)-6-(trifluoromethyl)picolinamide], the Dmax under setting [3] came out at 99%. The DC50 under setting [4] turned out to be 0.6 nM.

Take `NC(=O)c1nn([C@H]2CC[C@H](N3CCN(C4CC(c5ccc(N[C@H]6CCC(=O)NC6=O)cc5)C4)CC3)CC2)cc1NC(=O)c1coc(-c2ccnc(NCC(F)(F)F)c2)n1` (stereo partly drawn) [Example 10, N-(3-carbamoyl-1-((1r,4r)-4-(4-(3-(4-(((S)-2,6-dioxopiperidin-3-yl)amino)phenyl)cyclobutyl)piperazin-1-yl)cyclohexyl)-1H-pyrazol-4-yl)-2-(2-((2,2,2-trifluoroethyl)amino)pyridin-4-yl)oxazole-4-carboxamide]: under setting [3], the Dmax was determined as 92%. In addition, the 50% degradation concentration (DC50) under setting [4] was found to be 5.4 nM.

As for `O=C1CCN(c2ccc(N3CCC(N4CCN([C@H]5CC[C@H](n6cc(NC(=O)c7coc(-c8ccnc(NCC(F)(F)F)c8)n7)c(C(F)F)n6)CC5)CC4)C3)cc2)C(=O)N1` (some centres unmarked) [Example 21, N-(3-(difluoromethyl)-1-((1r,4r)-4-(4-(1-(4-(2,4-dioxotetrahydropyrimidin-1(2H)-yl)phenyl)pyrrolidin-3-yl)piperazin-1-yl)cyclohexyl)-1H-pyrazol-4-yl)-2-(2-((2,2,2-trifluoroethyl)amino)pyridin-4-yl)oxazole-4-carboxamide], the Dmax under setting [3] was 98%. Further, the half-maximal degradation concentration (DC50) under setting [4] was found to be 4.4 nM.

As for `O=C1CC[C@H](c2c(F)cc(N3CC[C@@H](C(=O)N4CCN([C@H]5CC[C@H](n6cc7cc(NC(=O)c8cccc(C(F)(F)F)n8)c(C(=O)NC8CC8)cc7n6)CC5)CC4)C3)cc2F)C(=O)N1` [Example 129, N-cyclopropyl-2-((1R,4r)-4-(4-((R)-1-(4-((R)-2,6-dioxopiperidin-3-yl)-3,5-difluorophenyl)pyrrolidine-3-carbonyl)piperazin-1-yl)cyclohexyl)-5-(6-(trifluoromethyl)picolinamido)-2H-indazole-6-carboxamide], under setting [3], the Dmax amounted to 99%. For the same compound, the half-maximal degradation concentration (DC50) under setting [4] was 1.9 nM.

For the compound `CC(C)(O)c1cc2nn([C@H]3CC[C@H](N4CCN(C[C@H]5CCN(c6cc(F)c(N7CCC(=O)NC7=O)c(F)c6)C5)CC4)CC3)cc2cc1NC(=O)c1ccc2cc(C#N)cnn12` [Example 112, 3-cyano-N-(2-((1R,4r)-4-(4-(((R)-1-(4-(2,4-dioxotetrahydropyrimidin-1(2H)-yl)-3,5-difluorophenyl)pyrrolidin-3-yl)methyl)piperazin-1-yl)cyclohexyl)-6-(2-hydroxypropan-2-yl)-2H-indazol-5-yl)pyrrolo[1,2-b]pyridazine-7-carboxamide], the Dmax under setting [3] was found to be 96%. Moreover, under setting [4], the DC50 was determined as 8.6 nM.

Regarding `COc1cc2nn(C3CCN(C4CCN(C(=O)C5CN(c6cc(F)c([C@H]7CCC(=O)NC7=O)c(F)c6)C5)CC4)CC3)cc2cc1NC(=O)c1cccc(C(F)(F)F)n1` [Example 45, (R)—N-(2-(1′-(1-(4-(2,6-dioxopiperidin-3-yl)-3,5-difluorophenyl)azetidine-3-carbonyl)-[1,4′-bipiperidin]-4-yl)-6-methoxy-2H-indazol-5-yl)-6-(trifluoromethyl)picolinamide], the Dmax was found to be 88% under setting [1] and 98% under setting [3]. In addition, the 50% degradation concentration (DC50) under setting [2] is 16 nM and the DC50 under setting [4] turned out to be 6.3 nM.

Turning to `CC(C)(O)c1cc2nn(C3CCN(C4CCN(C(=O)[C@@H]5CCN(c6cc(F)c([C@H]7CCC(=O)NC7=O)c(F)c6)C5)CC4)CC3)cc2cc1NC(=O)c1cccn(C2CC2)c1=O` [Example 118, 1-cyclopropyl-N-(2-(1′-((R)-1-(4-((R)-2,6-dioxopiperidin-3-yl)-3,5-difluorophenyl)pyrrolidine-3-carbonyl)-[1,4′-bipiperidin]-4-yl)-6-(2-hydroxypropan-2-yl)-2H-indazol-5-yl)-2-oxo-1,2-dihydropyridine-3-carboxamide], the Dmax under setting [3] is 85%. Also, under setting [4], the 50% degradation concentration (DC50) came out at 2.8 nM.

As to `CC(C)(O)c1cc2nn(C3CCN(C4CCN(C(=O)C5CN(c6cc(F)c([C@H]7CCC(=O)NC7=O)c(F)c6)C5)CC4)CC3)cc2cc1NC(=O)c1cccn(C2CC2)c1=O` [Example 117, (R)-1-cyclopropyl-N-(2-(1′-(1-(4-(2,6-dioxopiperidin-3-yl)-3,5-difluorophenyl)azetidine-3-carbonyl)-[1,4′-bipiperidin]-4-yl)-6-(2-hydroxypropan-2-yl)-2H-indazol-5-yl)-2-oxo-1,2-dihydropyridine-3-carboxamide], the Dmax under setting [3] turned out to be 78%. Further, the DC50 under setting [4] came out at 4.2 nM.

Take `O=C1CC[C@H](c2c(F)cc(N3CC(C(=O)N4CCN(c5ccc(-n6cc(NC(=O)c7coc(-c8ccnc(NCC9CC9)c8)n7)c(C(F)F)n6)cn5)CC4)C3)cc2F)C(=O)N1` [Example 90]: the Dmax under setting [3] is 96%. The DC50 under setting [4] is 3.1 nM.

For the compound `O=C1CC[C@H](c2c(F)cc(N3CC(C(=O)N4CCN([C@H]5CC[C@H](n6cc(NC(=O)c7coc(-c8ccnc(NCC9CC9)c8)n7)c(C(F)F)n6)CC5)CC4)C3)cc2F)C(=O)N1` [Example 25, 2-(2-((cyclopropylmethyl)amino)pyridin-4-yl)-N-(3-(difluoromethyl)-1-((1r,4r)-4-(4-(1-(4-((R)-2,6-dioxopiperidin-3-yl)-3,5-difluorophenyl)azetidine-3-carbonyl)piperazin-1-yl)cyclohexyl)-1H-pyrazol-4-yl)oxazole-4-carboxamide], under setting [3], the Dmax came to 99%. Further, the DC50 under setting [4] was found to be 2.5 nM.

Turning to `O=C1CCC(c2ccc(N3CC(C(=O)N4CCN([C@H]5CC[C@H](n6cc(NC(=O)c7coc(-c8ccnc(NCC(F)(F)F)c8)n7)c(C(F)F)n6)CC5)CC4)C3)cc2)C(=O)N1` (some centres unmarked) [Example 175, N-(3-(difluoromethyl)-1-((1r,4r)-4-(4-(1-(4-(2,6-dioxopiperidin-3-yl)phenyl)azetidine-3-carbonyl)piperazin-1-yl)cyclohexyl)-1H-pyrazol-4-yl)-2-(2-((2,2,2-trifluoroethyl)amino)pyridin-4-yl)oxazole-4-carboxamide], the Dmax reads like this: under setting [1], 88%; under setting [3], 100%. For the same compound, the DC50 by setting is: under setting [2], 12 nM; under setting [4], 1.7 nM.

A word on the DC50: it is the concentration at which degradation of the target reaches its halfway point. As usually defined, the Dmax is the greatest extent of degradation seen.
